In paper PMC3829776 (Nature chemical biology, 2013) one finds Ki data, which are given here for one compound.

In this assay the target is T1, Adipose triglyceride lipase (ATGL) (Mus musculus, UniProt Q8BJ56).
T1 sequence (Q8BJ56 1-486): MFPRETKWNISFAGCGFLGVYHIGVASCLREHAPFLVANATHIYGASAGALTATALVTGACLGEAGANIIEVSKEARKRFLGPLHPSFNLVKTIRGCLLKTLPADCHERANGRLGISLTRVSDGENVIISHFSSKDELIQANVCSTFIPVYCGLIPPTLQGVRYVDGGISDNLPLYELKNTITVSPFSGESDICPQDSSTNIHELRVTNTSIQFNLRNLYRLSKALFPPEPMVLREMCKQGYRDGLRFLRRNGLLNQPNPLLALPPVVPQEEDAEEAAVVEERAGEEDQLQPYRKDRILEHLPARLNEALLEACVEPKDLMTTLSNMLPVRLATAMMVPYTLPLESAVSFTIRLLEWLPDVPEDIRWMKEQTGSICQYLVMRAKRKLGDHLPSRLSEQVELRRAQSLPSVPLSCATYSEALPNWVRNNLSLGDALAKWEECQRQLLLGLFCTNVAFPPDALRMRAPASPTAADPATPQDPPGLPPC
T1 sequence (Q9DBL9 1-351 partner): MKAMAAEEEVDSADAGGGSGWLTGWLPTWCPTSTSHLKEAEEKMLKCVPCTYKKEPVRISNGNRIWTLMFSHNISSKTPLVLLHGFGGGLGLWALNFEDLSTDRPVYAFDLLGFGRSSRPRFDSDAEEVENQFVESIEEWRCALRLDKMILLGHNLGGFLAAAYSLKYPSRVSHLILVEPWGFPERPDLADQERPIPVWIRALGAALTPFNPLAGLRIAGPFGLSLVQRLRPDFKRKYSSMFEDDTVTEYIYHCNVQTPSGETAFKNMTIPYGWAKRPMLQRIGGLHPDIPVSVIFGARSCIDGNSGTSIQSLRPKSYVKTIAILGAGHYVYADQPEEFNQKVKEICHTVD
In kind it is biochemical.

With `CN(C)C(=O)Nc1cccc(-c2ccc(N(C)C)cc2)c1` [compound 4, Atglistatin], the Ki (commonly the equilibrium dissociation constant of an inhibitor or competing ligand from its target) was 355 ± 48 nM.
